# In US20220380347A1, “INHIBITORS OF CYSTEINE PROTEASES AND METHODS OF USE THEREOF” (Pardes Biosciences, Inc., priority 2020, published 2022):
# Where two headings read alike, the source gives them in different places.
# What was measured:
# [1] = test system: HCoV 229E; assay: HCoV 229E cytopathic effect (CPE) assay, CellTiter Glo; format: cell-based, human coronavirus (HCov) 229E; details: protection of virus-induced CPE
# [2] = biological target: COVID-19 (nCoV-2019, SARS-CoV2) Mpro (Severe acute respiratory syndrome coronavirus 2, UniProt P0DTD1); assay: COVID-19 (nCoV-2019, SARS-CoV2) Mpro enzymatic assay; format: biochemical; details: 25 nM Mpro, 25 μM substrate; read-out: COVID-19 Mpro IC50
# [3] = test system: HCov OC43; assay: HCoV OC43 cytopathic effect (CPE) assay, CellTiter Glo; format: cell-based, human coronavirus (HCov) OC43
# [4] = test system: cells without virus infection; assay: Cytotoxicity in parallel to the 229E CPE assay, without virus infection, CellTiter Glo; details: read-out: 229E CC50; without virus infection
# Procedure: (§1) Reagents and instruments used in this assay include luminescent cell viability assay kit CellTiter Glo (Promega) and Microplate Reader Synergy2 (BioTek).
# (§2) The cytotoxicity of compounds was assessed under the same conditions, but without virus infection, in parallel. Cell viability was measured with CellTiter Glo. The antiviral activity and cytotoxicity of compounds were expressed as % Inhibition and % Viability, respectively, and calculated with formulas.
# [5] = biological target: 229E Mpro (Human coronavirus 229E, UniProt P0C6X1); assay: 229E Mpro enzymatic assay (standard methods, SARS-CoV2 Mpro assay given as exemplary); format: biochemical, human coronavirus (HCov) 229E
# Procedure, shortened: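 Run by standard methods, with the SARS-CoV-2 Mpro protocol given as the model: E. coli-expressed C-His6 protease at 25 nM and substrate at 25 μM (Km 13.5 μM). Buffer pH 7.3 with 5 mM TCEP and 0.1% BSA; % inhibition versus controls fitted to variable-slope log(inhibitor)-response for IC50.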
# [6] = Cytotoxicity in parallel to the 229E CPE assay, without virus infection, CellTiter Glo; details: 229E CC50, without virus infection
# Procedure: as §1, §2
# [7] = Betacoronavirus 1, OC43, read-out: OC43 IC50 (uM) MEDIAN, median
# 229E Mpro, sequence (P0C6X1 2966-3267): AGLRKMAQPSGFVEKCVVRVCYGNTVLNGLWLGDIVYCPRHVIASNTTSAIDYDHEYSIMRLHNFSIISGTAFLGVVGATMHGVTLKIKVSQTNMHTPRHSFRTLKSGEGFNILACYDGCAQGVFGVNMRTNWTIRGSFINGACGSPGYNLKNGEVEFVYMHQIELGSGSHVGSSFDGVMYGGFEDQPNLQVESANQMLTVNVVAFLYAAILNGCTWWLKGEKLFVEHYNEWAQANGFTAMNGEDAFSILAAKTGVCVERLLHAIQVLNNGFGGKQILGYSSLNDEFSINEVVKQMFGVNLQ
Compound,EC50 ([1]; unidentified human coronavirus) [nM],IC50 [2] [nM],"IC50 [3, 7] [µM]",CC50 [4] [nM],EC50 ([5]; 229E Mpro EC50) [nM],CC50 [6] [nM],EC50 [1] [nM],EC50 ([5]; read-out: 229E Mpro EC50) [nM],"IC50 ([3]; read-out: OC43 IC50 (uM) MEDIAN, median) [µM]"
"COc1cncc(C(C(=O)NC2CCCCC2)N(C(=O)[C@H]2C[C@@H](O)CN2C#N)c2ccc(C(C)(C)C)cc2)c1 (single isomer, unassigned) [679 Isomer 1]",< 2000,< 2000,< 2,> 30000,< 2000,,,,
"CC1(C)C[C@H](C(=O)N(c2ccc(C(C)(C)C)cc2)C(C(=O)NC2CCCCC2)c2cccnc2)N(C#N)C1 (single isomer, unassigned) [Compound 268 Isomer 2]",< 2000,< 2000,2 to 10,,< 2000,10000 to 30000,,,
"CC(C)(C)c1ccc(N(C(=O)[C@H]2COCCN2C#N)C(C(=O)NC2CCCCC2)c2cccnc2)cc1 (single isomer, unassigned) [Compound 202 Isomer 2]",,< 2000,< 2,,,> 30000,< 2000,< 2000,
"COc1cncc(C(C(=O)NC2CCCCC2)N(C(=O)[C@H]2C[C@@H](O)CN2C#N)c2ccc(C(C)(C)C)cc2)c1 (single isomer, unassigned) [679 Isomer 2]",,10000 to 30000,,10000 to 30000,,,2000 to 10000,< 2000,2 to 10
"C[C@@H]1C[C@H](C(=O)N(c2ccc(C(C)(C)C)cc2)C(C(=O)NC2CCCCC2)c2cccnc2)N(C#N)C1 (single isomer, unassigned) [Compound 232 Isomer 2]",< 2000,2000 to 10000,2 to 10,,< 2000,10000 to 30000,,,
